Reference: ChEMBL document CHEMBL4483862, “Open-source discovery of chemical leads for next-generation chemoprotective antimalarials” (2018)

Tested on: Plasmodium berghei
Assay: Luciferase/luciferin-expressing antifolate-resistant parasites were used to infect a culture of HepG2 cells that were pre-incubated with compounds. Infected hepatocytes emit light due to the luciferase reaction. Assay results are presented as the percent inhibition of light emission compared to control. […]
Type: functional
Conditions: sporozoite; for IC90: read-out: LUCIFERASE INFECTION ASSAY - IC90

Structure (SMILES) | IC90 | other results
CCOC(=O)c1cc(-c2csc(Nc3c(C)cc(C)cc3C)n2)on1 | > 9.23 µM | IC50 (PBLUC_HILL_SLOPE 14.6, PBLUC_R_SQUARED 0.157, read-out: LUCIFERASE INFECTION ASSAY - IC50): 9.07 µM
COc1cc(OC)cc(C(=O)NC(=S)N(Cc2ccccc2)C(C)C)c1 | > 10 µM | IC50 (PBLUC_HILL_SLOPE 14.1, PBLUC_R_SQUARED 0.0494, read-out: LUCIFERASE INFECTION ASSAY - IC50): 8.89 µM
CCN(c1ccccc1)S(=O)(=O)c1cc(NC(=O)Nc2ccccc2C#N)ccc1Cl | > 10 µM | IC50 (PBLUC_HILL_SLOPE 14.4, PBLUC_R_SQUARED 0.0813, read-out: LUCIFERASE INFECTION ASSAY - IC50): > 10 µM
Cc1ccsc1/C=C/c1ccc2cccc(O)c2n1 | > 10 µM | IC50 (PBLUC_HILL_SLOPE 14, PBLUC_R_SQUARED 0.406, read-out: LUCIFERASE INFECTION ASSAY - IC50): 9.41 µM
CCOc1ccc(-n2c(C)cc(/C=N/Nc3nc(C)cc(O)n3)c2C)cc1 | > 10 µM | IC50 (PBLUC_HILL_SLOPE 14.4, PBLUC_R_SQUARED 0.318, read-out: LUCIFERASE INFECTION ASSAY - IC50): 9.96 µM
CC1CC(C)CN(c2nc3c(c(=O)[nH]c(=O)n3C)n2Cc2ccccc2F)C1 (stereo not given) | > 8.56 µM | IC50 (PBLUC_HILL_SLOPE 14.3, PBLUC_R_SQUARED 0.575, read-out: LUCIFERASE INFECTION ASSAY - IC50): 8.19 µM
COC(=O)c1ccc(-c2cnc3ccc(NCc4cccc(Cl)c4)nn23)cc1 | > 8.4 µM | IC50 (PBLUC_HILL_SLOPE 14.1, PBLUC_R_SQUARED 0.0198, read-out: LUCIFERASE INFECTION ASSAY - IC50): 7.46 µM
O=C(c1ccco1)N1CCc2nc(NCc3cccc(Cl)c3)ncc2C1 | 8.86 µM | IC50 (PBLUC_HILL_SLOPE 14.7, PBLUC_R_SQUARED 0.24, read-out: LUCIFERASE INFECTION ASSAY - IC50): 7.63 µM
COc1cccc(C(=O)c2c(-c3ccco3)c3c4n(c(-c5ccc(Cl)cc5)cn24)CCCC3)c1 | > 10 µM | IC50 (PBLUC_HILL_SLOPE 14.1, PBLUC_R_SQUARED 0.641, read-out: LUCIFERASE INFECTION ASSAY - IC50): 9.18 µM
CC(C)(C)C(=O)CSc1nnc(Nc2ccc(Oc3ccccc3)cc2)s1 | > 10 µM | IC50 (PBLUC_HILL_SLOPE 14.1, PBLUC_R_SQUARED 0.105, read-out: LUCIFERASE INFECTION ASSAY - IC50): 9.89 µM
N#Cc1c(F)ccc(NC(=O)Nc2ccc(Cl)cc2)c1F | > 10.7 µM | IC50 (PBLUC_HILL_SLOPE 14.7, PBLUC_R_SQUARED 0.232, read-out: LUCIFERASE INFECTION ASSAY - IC50): 10.6 µM
Cc1sc2ncnc(Sc3nnc(-c4cccs4)n3-c3ccccc3)c2c1C | 3.96 µM | IC50 (PBLUC_HILL_SLOPE 13.8, PBLUC_R_SQUARED 0.706, read-out: LUCIFERASE INFECTION ASSAY - IC50): 3.37 µM
O=C(CN1CCn2cccc2C1c1ccccc1)N1CCc2sccc2C1 (stereo not given) | 4.34 µM | IC50 (PBLUC_HILL_SLOPE 14, PBLUC_R_SQUARED 0.298, read-out: LUCIFERASE INFECTION ASSAY - IC50): 3.71 µM
CCC(C)c1ccc(-n2c(=O)c3ccccc3n3c(SCCc4ccncc4)nnc23)cc1 (stereo not given) | 9.16 µM | IC50 (PBLUC_HILL_SLOPE 14.1, 1.41, PBLUC_R_SQUARED 0.703, 0.467, read-out: LUCIFERASE INFECTION ASSAY - IC50): 5.1 µM
COc1ccc(OCC(O)CNCC23CC4CC(CC(C4)C2)C3)c(C(C)(C)C)c1 (stereo not given) | 9.84 µM | IC50 (PBLUC_HILL_SLOPE 14.7, PBLUC_R_SQUARED 0.42, read-out: LUCIFERASE INFECTION ASSAY - IC50): 8.48 µM
Cc1ccc2nc(NC(=O)COCc3ccccc3)c(C(=O)NC3CCCC3)n2c1 | > 8.12 µM | IC50 (PBLUC_HILL_SLOPE 14.3, PBLUC_R_SQUARED 0.563, read-out: LUCIFERASE INFECTION ASSAY - IC50): 7.54 µM
Cc1cc(NC(=O)c2ccc(C)c(C)c2)n(-c2nc3ccccc3[nH]2)n1 | > 9.55 µM | IC50 (PBLUC_HILL_SLOPE 14, PBLUC_R_SQUARED 0.327, read-out: LUCIFERASE INFECTION ASSAY - IC50): 8.17 µM
CNc1nc2cnc(-c3ccc(OC)cc3C)cc2n1Cc1ccc(OC)c(OC)c1 | 1.22 µM | IC50 (PBLUC_HILL_SLOPE 14.3, PBLUC_R_SQUARED 0.611, read-out: LUCIFERASE INFECTION ASSAY - IC50): 1.04 µM
COc1cc(-c2ccnc3n[nH]c(-c4ccc(N(C)C)cc4)c23)cc(OC)c1OC | 3.63 µM | IC50 (PBLUC_HILL_SLOPE 14.6, PBLUC_R_SQUARED 0.557, read-out: LUCIFERASE INFECTION ASSAY - IC50): 3.12 µM
Cc1nn(-c2ccccc2C(F)(F)F)c2nc(-c3ccccc3)cc(C(=O)N3CCCC(C)C3)c12 (stereo not given) | > 10 µM | IC50 (PBLUC_HILL_SLOPE 14.7, PBLUC_R_SQUARED 0.435, read-out: LUCIFERASE INFECTION ASSAY - IC50): 9.53 µM

Structure (SMILES) | IC90 | other results
COc1ccc(O)c(C(=O)NNC(=O)C23CC4CC(CC(C4)C2)C3)c1 | > 10 µM | IC50 (PBLUC_HILL_SLOPE 14.2, PBLUC_R_SQUARED 0.249, read-out: LUCIFERASE INFECTION ASSAY - IC50): 8.74 µM
CC(C)(C)c1ccc(C(=O)NNC(=S)Nc2ccc(Cl)cc2)cc1 | 8.97 µM | IC50 (PBLUC_HILL_SLOPE 14.6, PBLUC_R_SQUARED 0.46, read-out: LUCIFERASE INFECTION ASSAY - IC50): 7.71 µM
O=C(NCCSCc1csc2ccc(Cl)cc12)Nc1ccccc1 | > 8.75 µM | IC50 (PBLUC_HILL_SLOPE 14.3, PBLUC_R_SQUARED 0.456, read-out: LUCIFERASE INFECTION ASSAY - IC50): 8.24 µM
CCCCn1c(N)c(N(CCC)C(=O)/C=C/c2cccc3cccnc23)c(=O)[nH]c1=O | 3.69 µM | IC50 (PBLUC_HILL_SLOPE 14.7, PBLUC_R_SQUARED 0.526, read-out: LUCIFERASE INFECTION ASSAY - IC50): 3.18 µM
COc1ccc(-n2c(C)cc(/C=C(\C#N)C(=O)NCc3nnc4ccccn34)c2C)cc1 | 9.17 µM | IC50 (PBLUC_HILL_SLOPE 14.5, PBLUC_R_SQUARED 0.61, read-out: LUCIFERASE INFECTION ASSAY - IC50): 7.88 µM
CC(C)COc1ccc(NC(=O)c2ccnn2C)cc1Cl | > 10 µM | IC50 (PBLUC_HILL_SLOPE 14.7, PBLUC_R_SQUARED 0.488, read-out: LUCIFERASE INFECTION ASSAY - IC50): 9.12 µM
O=C(c1ccc(Cn2cccn2)cc1)N(C/C=C/c1ccccc1)c1ccc2c(c1)OCCO2 | 5.09 µM | IC50 (PBLUC_HILL_SLOPE 14.4, PBLUC_R_SQUARED 0.81, read-out: LUCIFERASE INFECTION ASSAY - IC50): 4.37 µM
Cc1cc(C)n(-c2cc(N3CCN(C)CC3)nc(-c3ccccc3)n2)n1 | > 9.47 µM | IC50 (PBLUC_HILL_SLOPE 14.6, PBLUC_R_SQUARED 0.207, read-out: LUCIFERASE INFECTION ASSAY - IC50): 8.77 µM
COCCOc1ccc(C(F)(F)F)cc1NC(=O)c1ccc(SCc2cscn2)cc1 | > 10 µM | IC50 (PBLUC_HILL_SLOPE 14.5, PBLUC_R_SQUARED 0.0793, read-out: LUCIFERASE INFECTION ASSAY - IC50): 8.84 µM
O=C(NC1CC1)c1ccc(CN(C(=O)Nc2cccc3ccccc23)C2CC2)cc1 | 4.41 µM | IC50 (PBLUC_HILL_SLOPE 14, PBLUC_R_SQUARED 0.411, read-out: LUCIFERASE INFECTION ASSAY - IC50): 3.77 µM
Cc1cc(NCc2c(F)cccc2Cl)ccc1N1CCCC1=O | > 10 µM | IC50 (PBLUC_HILL_SLOPE 14.5, PBLUC_R_SQUARED 0.0625, read-out: LUCIFERASE INFECTION ASSAY - IC50): 9.88 µM
N#C/C=C/C=C/c1nnn(-c2ccc(Cl)cc2)n1 | 12.6 µM | IC50 (PBLUC_HILL_SLOPE 14.5, PBLUC_R_SQUARED 0.28, read-out: LUCIFERASE INFECTION ASSAY - IC50): 10.9 µM
CC(=O)Nc1ccc(NC(=O)/C(C#N)=C/c2c(Cl)cccc2Cl)cc1 | > 10 µM | IC50 (PBLUC_HILL_SLOPE 14.2, PBLUC_R_SQUARED 0.281, read-out: LUCIFERASE INFECTION ASSAY - IC50): 9.36 µM
Cc1ccccc1-c1cnc2cnc(-c3ccc(CNc4ccccc4)cc3)cn12 | > 8.45 µM | IC50 (PBLUC_HILL_SLOPE 14.2, PBLUC_R_SQUARED 0.506, read-out: LUCIFERASE INFECTION ASSAY - IC50): 8.05 µM
CCn1c(NC(=O)CCc2ccc3c(c2)OCCO3)nc2ccccc21 | > 10 µM | IC50 (PBLUC_HILL_SLOPE 14.7, PBLUC_R_SQUARED 0.597, read-out: LUCIFERASE INFECTION ASSAY - IC50): 9.02 µM
CC(C)(C)c1ccc2nc(/C(=C\c3ccc(F)cc3)NC(=O)c3ccccc3)[nH]c2c1 | > 7.98 µM | IC50 (PBLUC_HILL_SLOPE 14.3, PBLUC_R_SQUARED 0.247, read-out: LUCIFERASE INFECTION ASSAY - IC50): 6.92 µM
COc1ccccc1-c1nc2c3c(C)c(C)n(CCCO)c3ncn2n1 | > 9.39 µM | IC50 (PBLUC_HILL_SLOPE 14, PBLUC_R_SQUARED 0.452, read-out: LUCIFERASE INFECTION ASSAY - IC50): 8.69 µM
CNc1nc2cnc(-c3ccc(F)cc3)cc2n1Cc1ccc(OC)c(OC)c1 | 3.97 µM | IC50 (PBLUC_HILL_SLOPE 14.4, PBLUC_R_SQUARED 0.339, read-out: LUCIFERASE INFECTION ASSAY - IC50): 3.41 µM
Cc1ccc2c(c1)C1CN(C)CCC1N2C(=O)c1sc2ccccc2c1Cl (stereo not given) | 6.62 µM | IC50 (PBLUC_HILL_SLOPE 14.0, 2.64, PBLUC_R_SQUARED 0.410, 0.165, read-out: LUCIFERASE INFECTION ASSAY - IC50): 3.64 µM
Oc1ccccc1-c1cc(-c2ccccc2)nn1Cc1ccccc1 | 3.93 µM | IC50 (PBLUC_HILL_SLOPE 14.4, PBLUC_R_SQUARED 0.373, read-out: LUCIFERASE INFECTION ASSAY - IC50): 3.37 µM
